In PubChem BioAssay (NCI):
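In this assay, cells in 96-well plates receive the compound at five concentrations for 48 hours. Endpoints are linearly interpolated between the surrounding concentrations. TGI marks complete inhibition of growth.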

Legend:
Assay in all cases: DTP human tumour cell line panel, 48 h
OVCAR-5 ovarian = system: OVCAR-5 ovarian
SR leukemia = system: SR leukemia
UO-31 renal = system: UO-31 renal
HCC-2998 colon = system: HCC-2998 colon
K-562 leukemia = system: K-562 leukemia
MCF7 breast = system: MCF7 breast
SNB-19 CNS = system: SNB-19 CNS
SK-MEL-28 melanoma = system: SK-MEL-28 melanoma
CCRF-CEM leukemia = system: CCRF-CEM leukemia
HCT-116 colon = system: HCT-116 colon

Compound	TGI (OVCAR-5 ovarian) [µM]	TGI (SR leukemia) [µM]	TGI (UO-31 renal) [µM]	TGI (HCC-2998 colon) [µM]	TGI (K-562 leukemia) [µM]	TGI (MCF7 breast) [µM]	TGI (SNB-19 CNS) [µM]	TGI (SK-MEL-28 melanoma) [µM]	TGI (CCRF-CEM leukemia) [µM]	TGI (HCT-116 colon) [µM]
CC(C)[Si](OC1=C(C(=O)N(C)c2cccc(Cl)c2)CCCC1)(C(C)C)C(C)C	22.5	42.5	27.9	34	71.3	29.2	31	28.6	49	–
O=C(NNC(=S)Nc1cccc(Cl)c1)c1cc(-c2ccccc2)nc2ccccc12	36	49.9	29.8	28.2	> 100	23	33.9	26.5	32.2	30.3
C[C@]12CCC(=O)O[C@H]1CCCCO2	> 100	> 100	–	> 100	> 100	> 100	–	> 100	> 100	> 100
CCN(CC)C(=S)N/N=C(/C)c1cccc(/C(C)=N\NC(=S)N(CC)CC)n1	20.8	2.4	7.94	23.8	11.6	5.3	18.4	3.88	> 100	11.4
O=c1cc(-c2ccc(F)cc2)[nH]c2ncc(Cl)cc12	> 100	23.7	> 100	> 100	32.6	> 100	> 100	> 100	77.1	> 61.3
O=C1/C(=C/c2ccc([N+](=O)[O-])cc2)C(=O)N(c2ccccc2)C1c1ccccc1 (configuration not stated)	> 10	> 10	> 10	> 10	–	> 10	> 10	> 10	> 10	> 10
CC1=NNC(N)=N/C1=C\C(Sc1ccc(Cl)cc1)c1ccc([N+](=O)[O-])cc1 (configuration not stated)	> 100	> 100	> 100	> 100	> 100	> 100	> 100	> 100	> 100	> 100
CCN(CC)CCNc1nc2ccc([N+](=O)[O-])cc2[n+]([O-])n1	31.7	> 100	> 100	44.8	54.3	9.86	> 100	> 100	85.3	49.6
COc1cc(/C=C2\C(=O)N(c3ccccc3)C(c3ccccc3)S2(=O)=O)cc(OC)c1OC (configuration not stated)	> 100	> 100	> 100	> 100	> 100	> 100	> 100	> 100	56.8	> 100
Cn1c2c(c3ccccc31)CC1c3c(c4ccccc4n3C)CC21 (configuration not stated)	> 100	> 100	> 100	> 100	> 100	> 100	> 100	> 100	> 100	–
O=C(N/N=C/c1ccccc1)c1c(-c2cccnc2)cnc2ccccc12	> 100	> 100	> 100	> 100	> 100	> 100	> 100	> 100	> 100	> 100
O=C(N/N=C\c1cccc2c([N+](=O)[O-])cccc12)Nc1ccccc1	30.5	43.3	26.4	32	43.5	26.7	36.5	31.9	33.9	16.1
Oc1ccc(-c2nc(-c3cccnc3)c(-c3ccc(Cl)cc3)[nH]2)cc1	33.5	44.1	22.9	33.1	> 100	24.7	31.2	32.1	17.9	31.6
COc1ccc(C2OC[C@H]3O[C@@H](OCc4ccccc4)[C@H](O)[C@@H](O)[C@@H]3O2)cc1 (some centres not stated)	> 100	> 100	> 100	> 100	> 100	> 100	> 100	> 100	> 100	> 100
Cc1ccc(N=Nc2c(O)ccc3cc(S(=O)(=O)O)cc(S(=O)(=O)O)c23)cc1	> 100	> 100	> 100	> 100	> 100	> 100	> 100	> 100	> 100	> 100
CCOC(=O)N/N=C(/N)c1cccc([N+](=O)[O-])c1	> 100	> 100	> 100	> 100	> 100	> 100	> 100	> 100	> 100	> 100

Compound	TGI (OVCAR-5 ovarian) [µM]	TGI (SR leukemia) [µM]	TGI (UO-31 renal) [µM]	TGI (HCC-2998 colon) [µM]	TGI (K-562 leukemia) [µM]	TGI (MCF7 breast) [µM]	TGI (SNB-19 CNS) [µM]	TGI (SK-MEL-28 melanoma) [µM]	TGI (CCRF-CEM leukemia) [µM]	TGI (HCT-116 colon) [µM]
N=C(N)c1ccc(C(NC(=O)CNS(=O)(=O)c2ccc3ccccc3c2)P(=O)(Oc2ccccc2)Oc2ccccc2)cc1 (configuration not stated)	> 100	> 100	> 100	> 100	> 100	> 100	> 100	> 100	> 100	> 100
O=C(O)Cc1cccc2c(=O)c3ccccc3oc12	–	> 100	> 100	46	> 100	> 100	> 100	> 100	> 100	> 100
O=Cc1ccc2c(c1)CC1(Cc3ccccc3C1)C2	> 100	18.4	58.7	> 100	44.9	66.4	–	–	25.5	> 100
O=C1C(CN2CCCCC2)CCC1CN1CCCCC1 (configuration not stated)	47.8	3.75	22.1	> 62.5	–	43	> 100	41.2	3.97	49.5
O=C(c1ccc(N=Cc2ccccc2O)cc1)c1ccc(N=Cc2ccccc2O)cc1	> 100	> 100	> 100	> 100	> 100	> 100	> 100	> 100	–	> 100
COc1cc(CNCc2cc(OC)c(OC)c(OC)c2)cc(OC)c1OC	> 10	> 9.12	> 10	> 10	> 7.36	> 10	> 10	> 10	5.86	> 10
CCOC(=O)c1cc(C(O)P2(=O)N(CC(C)(C)C)[C@@H]3CCCC[C@H]3N2CC(C)(C)C)cn1C(=O)OC(C)(C)C (some centres not stated)	41.6	25.6	28.7	29.7	47	51	46.2	30.3	–	23.2
C[N+](C)(C)CC1CCCCCCCCCCC1=O (configuration not stated)	> 100	> 100	> 100	> 100	> 100	> 100	> 100	> 100	> 100	> 100
c1ccc2c(c1)ccn2CCc1c[nH]c2ccccc12	> 10	> 10	> 10	> 10	> 10	> 10	> 10	> 10	> 10	> 10
Nc1cc2[nH]c(=O)c(=O)[nH]c2cc1N	> 100	> 100	> 100	> 100	> 100	> 100	> 100	> 100	> 100	> 100
CC(C)=CCC/C(C)=C/C=C/C(C)=C/C=C/C(C)=C/C=C/C=C(C)/C=C/C=C(C)/C=C/[C@H]1C(C(C)(C)O)CC[C@]1(C)O (some centres not stated)	> 100	54.4	47	30	63.6	35.5	–	41.9	34	31.2
Cc1ccc([N+](=O)[O-])cc1S(=O)(=O)Nc1ccc(C2=NNC(c3ccccc3)C2)cc1 (configuration not stated)	> 100	48.7	71.5	44.9	85	43.7	> 100	> 100	–	33.1
Cc1ccc(SCC(CF)OC(C)n2cnc3c(=O)[nH]c(N)nc32)cc1 (configuration not stated)	> 100	> 100	> 100	> 100	–	> 100	> 100	> 100	> 100	> 100
C=CC(CCc1ccc(C(=O)OCC)cc1)c1c(N)nc(N)[nH]c1=O (configuration not stated)	–	> 100	> 100	> 100	> 100	> 100	> 100	> 100	> 100	> 100
CSc1ncnc2c1ncn2C1CC(Oc2ccc(C)cc2)C(COc2ccc(C)cc2)O1 (configuration not stated)	> 100	> 100	–	> 100	–	> 100	> 100	> 100	> 100	> 100
O=C(O)c1ccc([N+](=O)[O-])c2cc3cnccc3nc12	76.9	> 100	43.7	50.3	36.5	38.7	–	34.8	9.03	33
